Experimental data published in ChEMBL document CHEMBL5365398, “Structure-activity relationship study of central pyridine-derived TYK2 JH2 inhibitors: Optimization of the PK profile through C4' and C6 variations” (Bioorg Med Chem Lett, 2023).

Legend:
[1] = in vitro; conditions: mouse, liver microsomes
[2] = in vitro; conditions: human, liver microsomes
[3] = in vitro; conditions: rat, liver microsomes
[4] = in vitro; conditions: human, Caco-2
[5] = in vitro; conditions: mouse, liver microsomes; remark: listed apart in the source
[6] = in vivo; conditions: mouse, po, 10 mg/kg
[7] = in vitro; conditions: human, liver microsomes; remark: listed apart in the source
[8] = in vitro; conditions: rat, liver microsomes; remark: listed apart in the source
[9] = in vivo; conditions: mouse, po, 10 mg/kg; remark: listed apart in the source
[10] = in vivo; conditions: mouse, po, 10 mg/kg; remark: listed apart in the source

Compound	remaining at 10 min, 0.5 µM [1]	remaining at 10 min, 0.5 µM [2]	remaining at 10 min, 0.5 µM [3]	Papp A→B [4]	half-life [5]	Cmax [6]	half-life [7]	half-life [8]	AUC(0-t) [9]	bioavailability [10]
[2H]C([2H])([2H])NC(=O)c1nnc(Nc2cccc(OC)n2)cc1Nc1nccc(-c2ncn(C)n2)c1OC	65%	88%	71%							
[2H]C([2H])([2H])NC(=O)c1nnc(NC(=O)C2CC2)cc1Nc1nccc(-c2ncc(F)cn2)c1OC	100%	89%	100%	34.5 ×10⁻⁶ cm/s						
[2H]C([2H])([2H])NC(=O)c1nnc(Nc2ccc(C(C)(C)O)cn2)cc1Nc1nccc(-c2ncc(F)cn2)c1OC	83%	100%	100%	9.7 ×10⁻⁶ cm/s	> 2 h	15.2 µM	> 2 h	> 2 h	34.2 µM·h	94%
